Data taken from publication PMC8394356 (Biomedicines, 2021).
Counter-ions that a name gives are not always drawn. Like-named read-outs stand apart in the source and are kept apart here.

Columns and labels:
[1] = biological target: T1, recombinant human AChE (Homo sapiens, UniProt P22303); assay: biochemical; settings: for IC50: isolated compounds from TT-hull-50EE, recombinant human AChE
T1 construct: purchased R&D Systems Inc. 7574-CE
Description: The acetylthiocholine iodide and DTNB were used for in vitro AChE inhibitory activity assays following the previous report. […] An equal volume of DMSO instead of the sample solution was used as a blank and expressed as 100% AChE activity. The absorbance changes were recorded at 405 nm for 10 min. The AChE inhibition (%) was calculated as follows: [(A405blank−A405sample)/(A405blank)] × 100%.

[2] = system: reduced form GSH contents in brain extracts; assay: Reduced GSH levels in brain tissue extracts of treated mice; type: in vivo; settings: oral TT-1 200 mg/kg, donepezil 5 mg/kg; scopolamine-induced amnesiac mice
Description: (§1) At the end of the TT-1 and TT-2 treatments, mice were sacrificed, and the whole brain of each ICR mouse was isolated and immediately stored at −80 °C for the measurement of residual AChE activity and the reduced GSH levels. The whole brain of each mouse was ground into powder by means of a mortar and pestle in liquid nitrogen and then extracted by adding 1 mL of 100 mM phosphate buffer (pH 7.5) to the ice bath. […] The residual AChE activity of each brain extract was expressed as [A405sample−A405sample blank]/μg protein.

[3] = cited from earlier work
[4] = biological target: T2, Aβ (1-42) peptide (Homo sapiens, UniProt P05067); assay: Inhibition of Aβ (1-42) aggregation in vitro (ThT fluorescent assay); type: biochemical; settings: for inhibition at 10 µM: read-out: inhibition of Aβ aggregation
T2 construct: the synthetic Aβ (1-42) peptide was weighed in an Eppendorf tube; purchased Kelowna International Scientific Inc; host or cells: synthetic peptide
Description: The ThT fluorescent assay was used to monitor the isolated compounds from the TT-hull on inhibition of Aβ (1-42) peptide aggregations. For the preparation of the Aβ stock film, the synthetic Aβ (1-42) peptide was weighed in an Eppendorf tube and dissolved in HFIP to prepare a 1 mM stock solution; then, HFIP solvent was evaporated to form the Aβ (1-42) film. The stock film was dissolved in 100 μL of 60 mM NaOH, and further diluted with 50 mM phosphate buffer (pH7.4, containing 150 mM sodium chloride, 1 mM EDTA, and 0.02% sodium azide). The 125 μL working solution contained 10 μM Aβ (1-42) peptide, purified compounds (10, 20, and 40 μM in DMSO), and 10 μM ThT solution, which was gently shaken at 37 °C for 24 h. The mixture without the sample additions was the control. The fluorescence ratios of Ex440nm/Em486nm were recorded at a time of 0 h and 24 h, and changes in fluorescence over a 24 h period were expressed as ΔE. The inhibition of Aβ aggregation (%) was calculated as [(ΔEcontrol−ΔEsample)/(ΔEcontrol)] × 100%.

[5] = system: scopolamine-induced amnesiac ICR mice; assay: Morris water maze in scopolamine-induced amnesiac ICR mice; type: in vivo; settings: donepezil 5 mg/kg, scopolamine 1 mg/kg i.p.
Description: (§2) The oral administration of TT-hull extracts or purified compounds in scopolamine-induced amnesiac ICR mice was performed according to the previous report, with some modifications. The 8-week-old male ICR mice were purchased from the Laboratory Animal Center, College of Medicine, National Taiwan University (Taipei, Taiwan). Normal diets (Prolab® RMH2500, Jefferson City, MO, USA) and water were provided during the animal experiments. All animal experimental protocols were approved by the Institutional Animal Care and Use Committee of Taipei Medical University (LAC-2016-0275). After one week of acclimation, for treatments of TT-hull extracts to test prevention, the mice were randomly divided into seven groups (6 heads/group), including the blank, the control, the donepezil-positive control, and the four extract-administered groups. […] Except for the blank group, the mice in each group were intraperitoneally injected with scopolamine (1 mg/kg) 30 min after the oral sample administration, and the mice in the blank group were injected with an equal volume of PBS. After being injected with scopolamine or PBS for another 30 min, each mouse was evaluated by a passive avoidance test at day 13 to day 14 and by the Morris water maze from day 17 to day 19. At the end of the experiments at day 20, the mice were sacrificed. For oral administration of purified compounds to test prevention, the ICR mice were pre-administered orally with TT-1 (100 mg/kg, 200 mg/kg) or TT-2 (300 mg/kg) once a day by gavage from day 1 to day 5; […]. From day 6 to day 11, the procedure was the same for the oral administration of the TT-hull extracts. Each mouse was evaluated by a passive avoidance test at day 6 to day 7 and by the Morris water maze from day 8 to day 10. At the end of the experiments at day 11, the mice were sacrificed, and the brain tissue was isolated and stored at −80 °C for further measurements.
The passive avoidance test and Morris water maze were used to evaluate the learning and memory functions of scopolamine-treated mice after the treatments with TT-hull extracts or purified compounds, by following the previous report. The apparatus of the passive avoidance test included a light box and a dark box separated by a guillotine door in a shuttle chamber (AccuScan Instruments Inc, Columbus, OH, USA), and a wired metal floor was placed in the dark box to provide electric foot shocks during the acquisition trial. On the first day of the passive avoidance test (as the acquisition trial), each mouse was acclimatized to the shuttle chamber for 30 min, and then placed in the light box. The mouse entered the dark box, the guillotine door was immediately closed, and, at the same time, an electric shock (0.3 mA) was delivered for 3 sec to the mouse via the wired metal floor. The time for which each mouse stayed in the light box (step-through latency of the acquisition trial, sec) was recorded. […] On the second day of the passive avoidance test (as the retention trial), the same protocol was performed, except that there were no electric foot shocks in the dark box, and the time for which each mouse stayed in the light box (step-through latency of the retention trial) was recorded. For the Morris water maze evaluations, a three-successive-day training protocol was performed; each mouse was trained for 1 min to find and climb onto the platform twice a day at 30 min intervals. For the second training procedure of the third day (as the reference memory task), the time required for the mouse to find and climb onto the platform from the starting point was recorded as the latency (sec). The platform was then removed (as the probe test), and the swimming time and crossing time in the platform quadrant were recorded for each mouse.

[6] = Oxygen radical absorbance capacity (ORAC), OxiSelect Assay Kit; settings: for ORAC activities relative to those of Trolox / ORAC activities, fold higher than those of Trolox: compound at 10 μM; for ORAC activities relative to those of Trolox: % of Trolox; for ORAC values: compound at a concentration of 10 μM
Description: The antioxidant index of free radical scavenging activities of the extracts (1.5 or 2.5 μg/mL) and purified compounds (10 μM) of TT-hull were determined by a commercial OxiSelect™ Assay Kit for oxygen radical absorbance capacity (ORAC) determination. The standard curve of ORAC was plotted using different concentrations of water-soluble vitamin E analog (the compound’s name was Trolox, 6-hydroxy-2,5,7,8-tetramethylchroman-2-carboxylic acid) at 2.5, 5, 10, 20, 40, and 60 μM. Therefore, the ORAC activities of TT-hull extracts or purified compounds were calculated equivalently to the Trolox effects and expressed as Trolox equivalents (μM).

[7] = system: scopolamine-induced amnesiac ICR mice; assay: Passive avoidance test in scopolamine-induced amnesiac ICR mice; type: in vivo; settings: scopolamine 1 mg/kg i.p.
Description: as §2, with “At the end of the experiments at day 11, the mice were sacrificed, and the brain tissue was isolated and stored at −80 °C for further measurements.” left out
The passive avoidance test and Morris water maze were used to evaluate the learning and memory functions of scopolamine-treated mice after the treatments with TT-hull extracts or purified compounds, by following the previous report. […] The time for which each mouse stayed in the light box (step-through latency of the acquisition trial, sec) was recorded. […] On the second day of the passive avoidance test (as the retention trial), the same protocol was performed, except that there were no electric foot shocks in the dark box, and the time for which each mouse stayed in the light box (step-through latency of the retention trial) was recorded. […] For the second training procedure of the third day (as the reference memory task), the time required for the mouse to find and climb onto the platform from the starting point was recorded as the latency (sec). The platform was then removed (as the probe test), and the swimming time and crossing time in the platform quadrant were recorded for each mouse.

[8] = biological target: T3, AChE activity in brain extracts (Mus musculus, UniProt P21836); type: in vivo; settings: oral TT-1 200 mg/kg, donepezil 5 mg/kg; scopolamine-induced amnesiac mice
T3 construct: from tissue; host or cells: whole brain of ICR mice
Description: as §1

[9] = system: scopolamine-induced amnesiac mice; settings: 10 mg/kg, with or without nanoparticle-delivered formulation; cited from earlier work
[10] = IC50 of AChE inhibitory activity
[11] = 1:1 ratio of Aβ to compound, 10 μM:10 μM, 37 °C, 24 h
[12] = 1:2 ratio of Aβ to compound, 10 μM to 20 μM, 37 °C, 24 h
[13] = 1:4 ratio of Aβ to compound, 10 μM to 40 μM, 37 °C, 24 h
[14] = purified compound experiment, oral TT-1 200 mg/kg
[15] = purified compound experiment, oral TT-1 100 and 200 mg/kg, TT-2 300 mg/kg, donepezil 5 mg/kg
[16] = read-out: IC50 of AChE inhibitory activity
[17] = extract experiment, oral 50EE or HWE 100 and 200 mg/kg

T2 sequence (P05067 672-713): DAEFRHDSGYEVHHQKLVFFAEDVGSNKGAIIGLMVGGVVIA
T1 sequence (P22303 32-614): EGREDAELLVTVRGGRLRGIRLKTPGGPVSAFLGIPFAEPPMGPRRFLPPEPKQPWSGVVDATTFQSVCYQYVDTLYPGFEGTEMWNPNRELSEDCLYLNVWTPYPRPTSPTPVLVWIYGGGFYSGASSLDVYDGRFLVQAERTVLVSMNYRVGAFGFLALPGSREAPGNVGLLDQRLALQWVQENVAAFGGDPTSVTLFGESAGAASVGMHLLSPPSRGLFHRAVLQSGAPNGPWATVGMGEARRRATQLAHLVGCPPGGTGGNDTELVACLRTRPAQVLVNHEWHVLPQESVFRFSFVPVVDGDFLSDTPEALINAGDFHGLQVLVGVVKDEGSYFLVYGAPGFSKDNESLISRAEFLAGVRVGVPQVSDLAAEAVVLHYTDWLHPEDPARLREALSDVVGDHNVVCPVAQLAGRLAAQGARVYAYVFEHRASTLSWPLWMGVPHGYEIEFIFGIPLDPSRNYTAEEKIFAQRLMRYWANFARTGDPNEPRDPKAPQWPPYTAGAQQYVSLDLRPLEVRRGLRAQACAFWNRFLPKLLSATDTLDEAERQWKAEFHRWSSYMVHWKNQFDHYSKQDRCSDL
T3 sequence (P21836 32-614): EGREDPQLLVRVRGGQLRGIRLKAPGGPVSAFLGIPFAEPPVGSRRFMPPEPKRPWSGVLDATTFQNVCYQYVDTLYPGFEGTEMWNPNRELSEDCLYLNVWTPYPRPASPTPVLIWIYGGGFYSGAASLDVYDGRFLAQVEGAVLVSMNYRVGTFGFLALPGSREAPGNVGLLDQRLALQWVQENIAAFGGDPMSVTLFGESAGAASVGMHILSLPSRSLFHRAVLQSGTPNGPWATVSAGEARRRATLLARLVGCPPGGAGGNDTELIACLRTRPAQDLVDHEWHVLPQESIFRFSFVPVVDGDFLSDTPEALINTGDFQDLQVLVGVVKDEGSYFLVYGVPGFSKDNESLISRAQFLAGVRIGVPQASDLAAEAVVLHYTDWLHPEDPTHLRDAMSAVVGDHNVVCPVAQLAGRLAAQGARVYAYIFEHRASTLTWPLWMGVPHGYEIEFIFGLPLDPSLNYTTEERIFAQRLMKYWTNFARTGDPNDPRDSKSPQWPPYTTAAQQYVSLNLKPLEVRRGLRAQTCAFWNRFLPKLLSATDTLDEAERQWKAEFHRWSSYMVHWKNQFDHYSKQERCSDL

SMILES	inhibition at 10 µM [4, 11] [%]	inhibition of Aβ aggregation [4, 12] [%]	inhibition of Aβ aggregation [4, 13] [%]	ORAC values [6] [μM Trolox equivalents]	step-through latency in the retention trial vs control [7, 15]	IC50 [1, 16] [µM]	ORAC activities, fold higher than those of Trolox [6]	other results
O=C(OC1O[C@@H]2COC(=O)c3cc(O)c(O)c(O)c3-c3c(cc(O)c(O)c3O)C(=O)O[C@H]2[C@H](OC(=O)c2cc(O)c(O)c(O)c2)[C@H]1OC(=O)c1cc(O)c(O)c(O)c1)c1cc(O)c(O)c(O)c1 (some centres unmarked) [TT-1, Tellimagrandin II]	75.8	100	100	5.1	showed longer step-through latency			IC50 [1, 10]: 18.6 µM; reduced form GSH contents in brain extracts vs control [2]: higher reduced form GSH contents; remaining contents ([3]; acidic buffers (pH 2 or pH 4) and simulated gastric fluids (pH 1.2)): higher than 90%; residual content ([3]; simulated intestinal fluids (pH 7.5) at 37 °C for 9 h): 31.40%; crossing numbers in the target quadrant, probe test, vs control [5, 14]: higher crossing numbers in the target quadrant; time spent in the target quadrant, probe test, vs control [5, 14]: longer time spent in the target quadrant; ORAC activities relative to those of Trolox [6]: 50%; AChE activity in brain extracts vs control [8]: lower AChE activity
O=C(OC[C@H]1O[C@@H](OC(=O)c2cc(O)c(O)c(O)c2)[C@H](OC(=O)c2cc(O)c(O)c(O)c2)[C@@H](OC(=O)c2cc(O)c(O)c(O)c2)[C@@H]1O)c1cc(O)c(O)c(O)c1 [TT-2, 1,2,3,6-tetra-O-galloyl-β-D-glucopyranoside]	58.5	88.08		18.7	no significant differences (p > 0.05)	84.2	close to two-fold higher	
O=C(O[C@@H]1O[C@H](CO)[C@@H](O)[C@H](OC(=O)c2cc(O)c(O)c(O)c2)[C@H]1OC(=O)c1cc(O)c(O)c(O)c1)c1cc(O)c(O)c(O)c1 [TT-3, 1,2,3-tri-O-galloyl-β-D-glucopyranoside]	42.7	92.44		15.1		371	close to two-fold higher	
O=C(OC[C@H]1O[C@@H](OC(=O)c2cc(O)c(O)c(O)c2)[C@H](OC(=O)c2cc(O)c(O)c(O)c2)[C@@H](O)[C@@H]1O)c1cc(O)c(O)c(O)c1 [TT-4, 1,2,6-tri-O-galloyl-β-D-glucopyranoside]	54.6	86.82	100	18.1		> 800	close to two-fold higher	inhibition at 800 µM ([1]; at concentration of 800 μM): < 50%
O=C(O)c1cc(O)c(O)c(O)c1 [TT-6, gallic acid]	37.2	77.73	88.19	23.7			2.4 fold	IC50 [1, 10]: 246 µM; learning behavior functions in the probe test of the Morris water maze [9]: showed improved learning behavior functions
O=C(O[C@H]1[C@@H]2OC(=O)c3cc(O)c(O)c(O)c3-c3c(cc(O)c(O)c3O)C(=O)OC[C@H]2OC(O)[C@@H]1OC(=O)c1cc(O)c(O)c(O)c1)c1cc(O)c(O)c(O)c1 (some centres unmarked) [TT-8, tellimagrandin I]		97.13	100	7.5		18.4		inhibition at 10 µM [4]: 66.6%; ORAC activities relative to those of Trolox [6]: 75%
COc1cc2c(cc1OC)C(=O)C(CC1CCN(Cc3ccccc3)CC1)C2 (centres unmarked) [donepezil, donepezil hydrochloride]					showed longer step-through latency			crossing numbers in the target quadrant, probe test, vs control [5, 17]: higher crossing numbers in the target quadrant; time spent in the target quadrant, probe test, vs control [5, 17]: spent more time in the target quadrant; crossing numbers in the target quadrant, probe test, vs control [5, 14]: higher crossing numbers in the target quadrant; time spent in the target quadrant, probe test, vs control [5, 14]: longer time spent in the target quadrant; step-through latency in the retention trial vs control ([7]; extract experiment, oral 50EE or HWE 100 and 200 mg/kg daily day 1-20, donepezil 5 mg/kg day 11-20): remained for a longer period of time in the light box
